The source of these data is ChEMBL document CHEMBL1201862, “PubChem BioAssay data set” (2004).

In assay [1] the target is Hepatocyte nuclear factor 4-alpha (Homo sapiens, UniProt P41235). The class given is functional, cell-based.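 Also: biochemical luminescence-based dose-response counterscreen measuring inhibition of HNF4 dimerization, run alongside a screen for blockers of ABHD5–perilipin-5 interaction; split luciferase complementation of HNF4 fusion proteins in cell lysate measuring dimerization.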
A further assay deals with Mu-type opioid receptor (Homo sapiens, UniProt P35372). Nature of the assay: HTS Image-Based Screen for Agonists of the MOR Receptor. [Related pubchem assays (depositor defined):AID1777, AID1785, AID1786, AID2133]. The class given is functional.
In assay [2] the target is Megakaryocyte-associated tyrosine-protein kinase (Homo sapiens, UniProt P42679). The class given is functional.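 Also: affinity measured as one member of a kinase panel (Navigating the Kinome) against MATK.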
For assay [3], the target named is Serine/threonine-protein kinase D2 (Homo sapiens, UniProt Q9BZL6). The class given is functional.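 Also: measured against PRKD2 as one member of a kinome-wide kinase profiling panel.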
For assay [4], the target named is Calcium/calmodulin-dependent protein kinase type II subunit gamma (Homo sapiens, UniProt Q13555). The class given is functional.
In assay [5] the target is Serine/threonine-protein kinase 17A (Homo sapiens, UniProt Q9UEE5). It counts as functional.
The target of assay [6] is Cell division cycle 7-related protein kinase (Homo sapiens, UniProt O00311). It counts as functional.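 Also: value obtained from a kinome-wide kinase panel.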
Assay [7] has as its target Tyrosine-protein kinase Lyn (Homo sapiens, UniProt P07948). It counts as functional.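 Also: lyn as one member of a kinase panel.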
Assay [8] has as its target Proto-oncogene tyrosine-protein kinase ROS (Homo sapiens, UniProt P08922). It counts as functional.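 Also: ROS1 tested as one member of a kinome-wide kinase panel.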
For assay [9], the target named is Tyrosine-protein kinase Blk (Homo sapiens, UniProt P51451). The class given is functional.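 Also: obtained as one member of a kinome-wide kinase assay panel.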
Assay [10] addresses Tyrosine-protein kinase Srms (Homo sapiens, UniProt Q9H3Y6). It counts as functional.
Assay [11] addresses Serine/threonine-protein kinase Chk1 (Homo sapiens, UniProt O14757). It counts as functional.
Assay [12] addresses Tyrosine-protein kinase ABL1 (Homo sapiens, UniProt P00519). The class given is functional.
Assay [13] has as its target Vascular endothelial growth factor receptor 2 (Homo sapiens, UniProt P35968). It counts as functional.
Assay [14] concerns the target Mitogen-activated protein kinase 1 (Homo sapiens, UniProt P28482). It counts as functional.
The target of assay [15] is Protein-tyrosine kinase 6 (Homo sapiens, UniProt Q13882). The class given is functional.
For assay [16], the target named is Cyclin-dependent kinase 1 (Homo sapiens, UniProt P06493). It counts as functional.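 Also: Kinome-wide panel profiling, with the target listed as panel member CDC2.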
For assay [17], the target named is Serine/threonine-protein kinase pim-2 (Homo sapiens, UniProt Q9P1W9). The class given is functional.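 Also: value comes from a broad kinase panel profiling study in which PIM2 was one of the panel members.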
In assay [18] the target is 3-phosphoinositide-dependent protein kinase 1 (Homo sapiens, UniProt O15530). The class given is functional.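 Also: value comes from the Navigating the Kinome panel, PDPK1 member.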
In assay [19] the target is Glycogen synthase kinase-3 beta (Homo sapiens, UniProt P49841). The class given is functional.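 Also: value comes from a broad kinome profiling panel, with GSK3B as the panel member.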
Assay [20] addresses Lymphokine-activated killer T-cell-originated protein kinase (Homo sapiens, UniProt Q96KB5). It counts as functional.
The target of assay [21] is T1, Oxysterols receptor LXR-beta (Homo sapiens, UniProt P55055).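 Also: Cell-based luminescence dose-response assay of agonist activity at LXR, run as a confirmatory counterscreen to a daf-12 agonist screen; HEK293 cells with Gal4-LXR fusion and GAL4-driven luciferase reporter; agonist potency from rising luciferase signal of a Gal4-LXR reporter.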
T1 sequence (P55055 whole entry): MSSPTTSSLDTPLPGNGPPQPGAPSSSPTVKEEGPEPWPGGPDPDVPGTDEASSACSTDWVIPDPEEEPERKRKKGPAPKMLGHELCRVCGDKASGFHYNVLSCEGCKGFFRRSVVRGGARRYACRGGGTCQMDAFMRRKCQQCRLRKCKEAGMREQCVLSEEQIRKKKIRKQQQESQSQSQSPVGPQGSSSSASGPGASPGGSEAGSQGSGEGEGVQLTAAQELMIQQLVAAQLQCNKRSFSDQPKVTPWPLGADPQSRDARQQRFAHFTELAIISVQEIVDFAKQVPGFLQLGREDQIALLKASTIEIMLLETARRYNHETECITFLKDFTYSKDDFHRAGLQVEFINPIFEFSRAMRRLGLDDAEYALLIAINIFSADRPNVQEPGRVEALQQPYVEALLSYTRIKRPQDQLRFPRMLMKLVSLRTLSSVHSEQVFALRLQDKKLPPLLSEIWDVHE
The class given is functional, cell-based.

For a further assay, the system named is HEK293. The assay is described as follows: inhibition of NOD1-driven NF-kB reporter – cell-based, luminescence, uHTS, primary screen (AID 1578). The class given is functional. The conditions noted are these: Homo sapiens.
Assay [22] deals with Peroxisome proliferator-activated receptor gamma/Nuclear receptor coactivator 1 (Homo sapiens, UniProt P37231). The class given is functional.
The test system of a further assay is H4. Nature of the assay: Luminescence Cell-Based Dose Response HTS to Identify Activators of 5'UTR Stem-Loop Driven Prion Protein mRNA Translation in H4 Neuroglioblastoma Cells. [Related pubchem assays: 1829 (Project Summary), 1814 (Primary HTS)]. The class given is functional. The conditions noted are these: Homo sapiens.
Assay [23] has as its target Eukaryotic translation initiation factor 4E (Mus musculus, UniProt P63073). The assay is described as follows: blockers of eIF4G binding by eIF4E – biochemical, TR-FRET, dose response (AID 855).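 Also: potency for disrupting eIF4E binding to eIF4GI seen as loss of FRET.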 It counts as functional. (In general: Time-resolved FRET reads energy transfer from a long-lived donor to a nearby acceptor.)

In general, IC50 refers to the concentration that inhibits the measured activity by half. The EC50 is the concentration that produces a half-maximal response. The term Ki denotes the dissociation constant of the complex between target and ligand, obtained from inhibition or displacement.

Active and inactive are the calls of the source.

Chain of Eukaryotic translation initiation factor 4E (P63073 whole entry): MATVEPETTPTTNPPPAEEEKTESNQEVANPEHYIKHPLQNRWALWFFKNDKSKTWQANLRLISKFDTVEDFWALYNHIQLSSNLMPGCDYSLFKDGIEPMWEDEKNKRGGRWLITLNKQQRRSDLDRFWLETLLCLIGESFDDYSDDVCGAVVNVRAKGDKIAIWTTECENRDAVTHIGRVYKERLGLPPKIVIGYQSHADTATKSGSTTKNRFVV
Chain of Cyclin-dependent kinase 1 (P06493 whole entry): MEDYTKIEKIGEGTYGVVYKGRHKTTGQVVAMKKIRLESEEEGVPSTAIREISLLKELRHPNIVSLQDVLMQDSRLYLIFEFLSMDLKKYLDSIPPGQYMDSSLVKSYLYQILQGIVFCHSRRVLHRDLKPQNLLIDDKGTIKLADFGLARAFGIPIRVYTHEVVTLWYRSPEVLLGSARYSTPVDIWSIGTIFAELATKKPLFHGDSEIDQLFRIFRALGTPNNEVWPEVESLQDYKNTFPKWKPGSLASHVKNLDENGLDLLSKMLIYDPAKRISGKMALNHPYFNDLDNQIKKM
Chain of Glycogen synthase kinase-3 beta (P49841 whole entry): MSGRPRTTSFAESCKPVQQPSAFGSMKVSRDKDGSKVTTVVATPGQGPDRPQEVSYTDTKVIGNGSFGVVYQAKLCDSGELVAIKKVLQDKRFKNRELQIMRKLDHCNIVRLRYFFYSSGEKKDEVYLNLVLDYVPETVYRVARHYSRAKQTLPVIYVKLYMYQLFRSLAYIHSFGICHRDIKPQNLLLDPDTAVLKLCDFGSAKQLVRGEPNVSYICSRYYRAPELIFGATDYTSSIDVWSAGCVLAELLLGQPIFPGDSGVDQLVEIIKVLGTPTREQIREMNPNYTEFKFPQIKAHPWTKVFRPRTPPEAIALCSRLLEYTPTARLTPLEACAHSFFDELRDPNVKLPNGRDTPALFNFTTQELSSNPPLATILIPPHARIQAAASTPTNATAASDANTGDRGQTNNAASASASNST
Chain of Protein-tyrosine kinase 6 (Q13882 whole entry): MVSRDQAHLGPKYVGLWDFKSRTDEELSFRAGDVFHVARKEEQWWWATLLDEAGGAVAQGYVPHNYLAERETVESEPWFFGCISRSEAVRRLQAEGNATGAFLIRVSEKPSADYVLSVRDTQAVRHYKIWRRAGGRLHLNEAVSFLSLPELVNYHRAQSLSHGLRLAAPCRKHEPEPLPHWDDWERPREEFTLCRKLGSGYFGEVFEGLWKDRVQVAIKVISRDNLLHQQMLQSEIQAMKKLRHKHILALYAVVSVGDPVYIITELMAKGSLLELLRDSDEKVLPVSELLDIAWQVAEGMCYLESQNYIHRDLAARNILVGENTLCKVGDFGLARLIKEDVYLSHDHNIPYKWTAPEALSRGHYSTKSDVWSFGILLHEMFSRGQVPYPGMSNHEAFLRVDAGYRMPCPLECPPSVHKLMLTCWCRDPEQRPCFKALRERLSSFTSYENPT
Chain of Mu-type opioid receptor (P35372 whole entry): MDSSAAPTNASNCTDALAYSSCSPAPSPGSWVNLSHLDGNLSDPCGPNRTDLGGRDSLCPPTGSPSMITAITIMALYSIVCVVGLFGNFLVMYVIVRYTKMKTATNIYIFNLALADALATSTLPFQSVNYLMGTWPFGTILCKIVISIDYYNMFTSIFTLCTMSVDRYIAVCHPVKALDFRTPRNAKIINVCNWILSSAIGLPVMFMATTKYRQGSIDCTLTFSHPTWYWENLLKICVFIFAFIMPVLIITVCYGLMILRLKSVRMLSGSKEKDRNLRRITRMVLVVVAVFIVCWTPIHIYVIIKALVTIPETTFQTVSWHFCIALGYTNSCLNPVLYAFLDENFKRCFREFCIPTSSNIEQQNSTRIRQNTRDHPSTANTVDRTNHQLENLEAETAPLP
Chain of Peroxisome proliferator-activated receptor gamma/Nuclear receptor coactivator 1 (P37231 whole entry): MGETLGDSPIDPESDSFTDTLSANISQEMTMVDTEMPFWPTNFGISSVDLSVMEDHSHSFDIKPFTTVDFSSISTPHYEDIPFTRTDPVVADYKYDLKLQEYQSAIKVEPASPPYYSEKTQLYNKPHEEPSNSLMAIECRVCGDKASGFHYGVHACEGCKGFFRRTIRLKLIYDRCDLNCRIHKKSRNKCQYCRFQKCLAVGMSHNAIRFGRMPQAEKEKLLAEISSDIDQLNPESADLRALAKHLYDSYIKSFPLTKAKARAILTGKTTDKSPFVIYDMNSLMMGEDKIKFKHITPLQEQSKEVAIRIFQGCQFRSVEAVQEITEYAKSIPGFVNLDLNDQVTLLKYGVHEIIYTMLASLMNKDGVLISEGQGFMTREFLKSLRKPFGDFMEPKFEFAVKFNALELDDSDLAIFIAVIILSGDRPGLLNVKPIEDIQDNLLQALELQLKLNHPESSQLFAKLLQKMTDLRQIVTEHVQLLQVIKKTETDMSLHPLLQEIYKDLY
Chain of Peroxisome proliferator-activated receptor gamma/Nuclear receptor coactivator 1 (Q15788 whole entry, further chain): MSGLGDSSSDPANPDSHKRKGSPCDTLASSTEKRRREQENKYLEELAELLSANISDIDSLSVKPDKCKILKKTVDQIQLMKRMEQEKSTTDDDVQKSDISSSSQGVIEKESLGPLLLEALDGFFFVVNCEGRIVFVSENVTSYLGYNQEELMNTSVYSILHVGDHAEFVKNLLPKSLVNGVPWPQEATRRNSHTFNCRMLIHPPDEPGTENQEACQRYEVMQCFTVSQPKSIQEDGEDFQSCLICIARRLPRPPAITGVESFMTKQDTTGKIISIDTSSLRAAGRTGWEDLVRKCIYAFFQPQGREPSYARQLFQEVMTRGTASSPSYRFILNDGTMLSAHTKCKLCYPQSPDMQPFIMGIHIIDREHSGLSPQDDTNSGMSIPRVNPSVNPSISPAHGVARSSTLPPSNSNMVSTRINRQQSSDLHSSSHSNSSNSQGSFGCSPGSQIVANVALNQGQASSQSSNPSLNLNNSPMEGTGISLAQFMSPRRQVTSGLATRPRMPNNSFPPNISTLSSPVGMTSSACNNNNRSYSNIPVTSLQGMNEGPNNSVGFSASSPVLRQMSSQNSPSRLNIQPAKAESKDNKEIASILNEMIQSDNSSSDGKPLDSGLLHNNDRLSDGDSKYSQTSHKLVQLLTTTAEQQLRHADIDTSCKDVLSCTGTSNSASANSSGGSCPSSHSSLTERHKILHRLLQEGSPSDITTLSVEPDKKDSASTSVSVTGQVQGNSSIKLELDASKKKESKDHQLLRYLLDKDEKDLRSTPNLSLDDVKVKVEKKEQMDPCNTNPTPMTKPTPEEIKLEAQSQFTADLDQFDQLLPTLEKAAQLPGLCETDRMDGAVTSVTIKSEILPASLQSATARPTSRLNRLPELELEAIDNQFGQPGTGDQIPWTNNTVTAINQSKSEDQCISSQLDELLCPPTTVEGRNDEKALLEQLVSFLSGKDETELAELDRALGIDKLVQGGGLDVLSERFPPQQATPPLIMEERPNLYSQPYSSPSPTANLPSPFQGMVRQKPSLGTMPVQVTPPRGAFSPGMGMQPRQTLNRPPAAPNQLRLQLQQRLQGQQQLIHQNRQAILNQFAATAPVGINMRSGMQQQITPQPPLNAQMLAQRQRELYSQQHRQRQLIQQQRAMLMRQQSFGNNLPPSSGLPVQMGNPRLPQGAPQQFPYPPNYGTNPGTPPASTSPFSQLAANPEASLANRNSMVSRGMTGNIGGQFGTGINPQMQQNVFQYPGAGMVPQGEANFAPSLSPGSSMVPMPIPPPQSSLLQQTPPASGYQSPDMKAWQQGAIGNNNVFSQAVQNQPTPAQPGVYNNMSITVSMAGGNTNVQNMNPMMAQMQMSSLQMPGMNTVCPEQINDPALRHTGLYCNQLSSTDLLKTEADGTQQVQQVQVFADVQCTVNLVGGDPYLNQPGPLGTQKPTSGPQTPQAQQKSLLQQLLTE
Chain of Serine/threonine-protein kinase D2 (Q9BZL6 whole entry): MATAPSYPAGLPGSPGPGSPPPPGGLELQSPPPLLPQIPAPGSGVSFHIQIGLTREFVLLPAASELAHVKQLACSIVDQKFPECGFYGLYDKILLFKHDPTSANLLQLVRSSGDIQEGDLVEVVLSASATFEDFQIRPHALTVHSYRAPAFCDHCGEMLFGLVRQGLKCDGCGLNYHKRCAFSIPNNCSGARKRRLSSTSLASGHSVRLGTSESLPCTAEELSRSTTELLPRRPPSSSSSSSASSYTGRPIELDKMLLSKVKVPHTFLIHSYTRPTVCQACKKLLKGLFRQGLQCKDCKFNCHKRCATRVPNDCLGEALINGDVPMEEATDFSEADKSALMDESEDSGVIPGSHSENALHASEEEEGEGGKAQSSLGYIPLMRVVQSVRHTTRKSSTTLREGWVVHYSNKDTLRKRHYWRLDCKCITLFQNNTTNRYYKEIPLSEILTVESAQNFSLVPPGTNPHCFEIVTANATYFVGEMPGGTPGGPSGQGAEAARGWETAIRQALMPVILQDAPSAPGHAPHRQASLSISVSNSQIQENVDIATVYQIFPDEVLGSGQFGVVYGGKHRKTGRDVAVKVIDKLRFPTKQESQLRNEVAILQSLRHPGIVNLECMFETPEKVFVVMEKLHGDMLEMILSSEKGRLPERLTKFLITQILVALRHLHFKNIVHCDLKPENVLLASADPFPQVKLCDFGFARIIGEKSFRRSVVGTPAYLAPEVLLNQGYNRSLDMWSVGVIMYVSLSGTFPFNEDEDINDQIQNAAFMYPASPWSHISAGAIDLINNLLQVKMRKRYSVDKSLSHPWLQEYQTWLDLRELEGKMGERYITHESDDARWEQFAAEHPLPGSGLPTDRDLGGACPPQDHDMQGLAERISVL
Chain of Mitogen-activated protein kinase 1 (P28482 whole entry): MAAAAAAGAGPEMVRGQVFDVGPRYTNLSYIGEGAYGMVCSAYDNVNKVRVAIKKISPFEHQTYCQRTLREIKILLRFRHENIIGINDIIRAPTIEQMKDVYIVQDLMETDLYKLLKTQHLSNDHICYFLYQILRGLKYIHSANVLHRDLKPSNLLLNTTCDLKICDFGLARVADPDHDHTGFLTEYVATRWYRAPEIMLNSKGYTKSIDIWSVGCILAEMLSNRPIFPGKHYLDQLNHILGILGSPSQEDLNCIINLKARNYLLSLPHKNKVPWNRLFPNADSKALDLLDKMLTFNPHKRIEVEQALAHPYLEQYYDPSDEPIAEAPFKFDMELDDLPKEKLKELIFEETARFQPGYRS

`Cc1ccc(C(=O)c2c(C)oc3c2C(=O)C(=O)c2ccccc2-3)cc1`: the IC50 in assay [1] was 5.42 µM (active).

For the compound `Cc1ccc(Nc2cc(C)nn2-c2nc(C)cc(O)n2)cc1`, the EC50 at Mu-type opioid receptor was > 32 µM (inactive).

For `O=C1NC(=S)SC1=C1C(=O)Nc2ccc(Br)cc21`, the Ki is > 2 µM (inactive) in assay [2]; 3.16 µM (active) in assay [3]; 0.501 µM (active) in assay [4]; 0.631 µM (active) in assay [5]; > 1.26 µM (inactive) in assay [6]; > 1.58 µM (inactive) in [7]. Moreover, the Ki is > 2 µM (inactive) in assay [8]; > 1.58 µM (inactive) in [9]; > 1.58 µM (inactive) in [10]; > 7.94 µM (inactive) in [11]; > 0.631 µM (inactive) in [12]; > 7.94 µM (inactive) in [13]. Also, the Ki in [14] is > 7.94 µM (inactive); in assay [15], > 2.51 µM (inactive); in assay [16], > 7.94 µM (inactive); in assay [17], 0.251 µM (active); in assay [18] it was > 3.98 µM (inactive); in assay [19], 0.501 µM (active). Besides, in [20], the Ki is 7.94 µM (active).

As to `Cc1cnc(NC(=O)c2sc3ccccc3c2Cl)s1`, the EC50 in [21] is > 67.5 µM (inactive).

Consider `O=C1C(O)=C/C(=N\c2ccccc2O)c2ccccc21`, for which the EC50 in the assay with HEK293 was 14.8 µM (active).

With `CN(C)c1ncc(C2=C(Cl)C(=O)C(N3CCCC3)=C(Cl)C2=O)s1`, the EC50 in assay [22] is > 79.4 µM (not active); with H4, 34.1 µM (active). Besides, the IC50 in assay [23] is > 64 µM (inactive).
